Laboratory results from ChEMBL document CHEMBL1124836 (J Med Chem, 1990).

Legend:
Adenosine A2 receptor = Adenosine A2 receptor (Rattus norvegicus, UniProt P29276+P30543)
[1] = Ratio of A1-receptor binding to that of A2-receptor binding
Adenosine receptor A1 = target: T1, Adenosine receptor A1 (Rattus norvegicus, UniProt P25099); test: Adenosine A1 receptor binding was measured in adenosine deaminase (ADA) pretreated rat cortical membranes using [3H]cyclohexyladenosine in the presence of 2-chloroadenosine
T1 sequence (P25099 whole entry): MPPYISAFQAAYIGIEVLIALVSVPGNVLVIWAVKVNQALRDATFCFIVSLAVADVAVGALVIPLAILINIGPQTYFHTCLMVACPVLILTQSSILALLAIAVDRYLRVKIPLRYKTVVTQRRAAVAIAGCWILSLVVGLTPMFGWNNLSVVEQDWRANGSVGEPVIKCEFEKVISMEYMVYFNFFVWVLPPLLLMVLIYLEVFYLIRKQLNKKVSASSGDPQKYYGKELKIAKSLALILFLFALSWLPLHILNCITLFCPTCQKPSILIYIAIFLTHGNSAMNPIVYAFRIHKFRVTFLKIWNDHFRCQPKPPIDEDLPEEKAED

Rattus norvegicus [2] = organism: Rattus norvegicus; test: Effective concentration required for 25% increase in coronary flow(CF) in perfused working heart model was determined; assay type: functional
Rattus norvegicus [3] = organism: Rattus norvegicus; test: Effective concentration required for 25% decrease in heart rate in perfused working heart model was determined

Row | SMILES | Ki (Adenosine A2 receptor) [nM] | Ratio [1] | Ki (Adenosine receptor A1) [nM] | EC25 (Rattus norvegicus [2]) [nM] | EC25 (Rattus norvegicus [3]) [µM]
1 | CCNC(=O)[C@H]1O[C@@H](n2cnc3c(N)nc(NCCc4ccc(CC(=O)O)cc4)nc32)[C@H](O)[C@@H]1O | 45 | 109 | 4880 |  | 
2 | CCNC(=O)[C@H]1O[C@@H](n2cnc3c(N)nc(NCCc4ccc(CCC(=O)OC)cc4)nc32)[C@H](O)[C@@H]1O | 9 | 140 | 1260 |  | 
3 | CCNC(=O)[C@H]1OC(n2cnc3c(N)nc(NCCc4ccc(Cl)cc4)nc32)[C@H](O)[C@@H]1O (stereo partly specified) | 7.5 | 201 | 1510 |  | 
4 | CCNC(=O)[C@H]1O[C@@H](n2cnc3c(N)ncnc32)[C@H](O)[C@@H]1O [NECA] |  |  |  | 5 | 0.06
5 | Nc1nc(Nc2ccccc2)nc2c1ncn2[C@@H]1O[C@H](CO)[C@@H](O)[C@H]1O | 71 |  |  | 110 | > 3
6 | CNC(=O)[C@H]1O[C@@H](n2cnc3c(N)nc(NCCc4ccccc4)nc32)[C@H](O)[C@@H]1O | 77 | 69 | 5350 |  | 
7 | Nc1nc(NCCc2ccccc2)nc2c1ncn2[C@@H]1O[C@H](C(=O)NC2CC2)[C@@H](O)[C@H]1O | 14 | 36 | 502 |  | 
8 | CNC(=O)[C@H]1O[C@@H](n2cnc3c(N)ncnc32)[C@H](O)[C@@H]1O |  |  | 101 |  | 
9 | CCNC(=O)[C@H]1O[C@@H](n2cnc3c(N)nc(NCCc4ccccc4)nc32)[C@H](O)[C@@H]1O |  |  | 473 | 3 | > 3
10 | CCNC(=O)[C@H]1O[C@@H](n2cnc3c(N)nc(NCCc4ccc(CCC(=O)O)cc4)nc32)[C@H](O)[C@@H]1O [CGS-21680] |  |  |  | 2 | > 3
11 | CCNC(=O)[C@H]1O[C@@H](n2cnc3c(N)nc(N(C)CCc4ccccc4)nc32)[C@H](O)[C@@H]1O | 71 | 170 | 12100 |  | 
12 | CC(=O)O[C@]1(C(C)=O)CC[C@H]2[C@@H]3C=C(Cl)C4=CC(=O)[C@@H]5C[C@@H]5[C@]4(C)[C@H]3CC[C@@]21C [CYPROTERONE ACETATE] | 636 | 0.002 | 1.3 |  | 
13 | CCNC(=O)[C@H]1O[C@@H](n2cnc3c(N)nc(NCCc4ccc(F)cc4)nc32)[C@H](O)[C@@H]1O | 7.7 | 154 | 1180 |  | 
14 | CCNC(=O)[C@H]1O[C@@H](n2cnc3c(N)nc(NCCc4ccc(OCC(=O)O)cc4)nc32)[C@H](O)[C@@H]1O | 42 | 101 | 4250 |  | 
15 | CCNC(=O)[C@H]1O[C@@H](n2cnc3c(N)nc(NCc4ccccc4)nc32)[C@H](O)[C@@H]1O | 1130 | 7.6 | 8600 |  | 
